Data from PMC10483858 (Molecular Cancer, 2023).

Columns and labels:
[1] = system: PD-L1/CD80 and PD-1/PD-L1 pathways; conditions: ref [14]; cited from earlier work
[2] = system: hPD-1/hPD-L1 immune checkpoint (Jurkat-ECs with CHO/TCRAct/PD-L1 cells); test: Immune checkpoint blockade (ICB) assay, hPD-1/hPD-L1 setup; assay type: cell-based, human; conditions: for blockade of hPD-1/hPD-L1, restored activation of Jurkat-ECs (in words): 24-hour incubation, in parallel to hPD-1/mPD-L1 assay, Fig. 2C
Experimental: (§1) The peptide was tested along with three therapeutic antibodies, atezolizumab, avelumab, and durvalumab.
(§2) Data points represent mean ± SD values from 4–6 independent experiments. […] Triton X-100-treated cells and cells without the addition of a Redox Dye were used as baseline controls. […] In the assay, three antibodies (atezo. – atezolizumab, ave. – avelumab, durva. – durvalumab) and the peptide pAC65 were used. […] The graphs show fractions of positive cells and represent cumulative data from 3–4 donors.
These cell lines were cultured in RPMI 1640 medium (Biowest) supplemented with 10% fetal bovine serum (FBS, Biowest) and […] L-glutamine (Biowest). The selection antibiotics: G418 (250 μg/mL, InvivoGen) and Hygromycin B Gold (50 μg/mL, InvivoGen) were also added to the culture medium as per application.
The assay was performed according to the manufacturer’s protocol (Promega). […] The dilutions of monoclonal antibodies were prepared in the assay buffer. Followed by a 6-hour (routinely) or 24-hour (for testing bioactivity in parallel to the hPD-1/mPD-L1 ICB assay) incubation at 37°C and 5% CO2, and an additional 20 min of incubation with the luminescence reagent (Bio-Glo™ Luciferase Assay System, Promega) at room temperature, activation of Jurkat ECs, reflected by luciferase activity, was monitored by luminescence measurements on a Spark microplate reader (Tecan). […] Data points represent mean ± SD values from four to eight independent experiments. EC50 values as half-maximal effective concentrations were calculated from the Hill curve fitting to the experimental data using Origin Pro 2020 software (OriginLab).

[3] = system: hPD-1/mPD-L1 immune checkpoint (Jurkat-ECs with B16-F10/TCRAct cells); conditions: ref [12]; cited from earlier work
Experimental: To evaluate the bioactivity of the pAC65 peptide, cell-based immune checkpoint blockade assays, T-cell activation (TCA) assay, and a viability assay were performed.

[4] = system: hPD-1/mPD-L1 immune checkpoint (Jurkat-ECs with B16-F10/TCRAct cells); test: Immune checkpoint blockade (ICB) assay, hPD-1/mPD-L1 setup; assay type: cell-based, human (hPD-1); conditions: B16-F10/TCRAct cells treated with 20 ng/ml mouse IFN-γ for 48 h; 24 h co-culture, Fig. 2D; three independent experiments
Experimental: as §1, §2
Mouse skin melanoma B16-F10 cell line was purchased from the American Type Culture Collection (ATCC) and cultured in RPMI 1640 medium (Biowest) supplemented with 10% fetal bovine serum (FBS, Biowest) and […] L-glutamine (Biowest). The generation of the B16-F10 cells overexpressing TCR-Activator (maAPCs) clone 3A5 was described in our previous work (Magiera-Mularz et al., 2021). […]
B16-F10/TCRAct cells (maAPCs) were seeded on 96-well white bottom plates at the density of 2,000 cells/well and treated with 20 ng/ml of mouse recombinant IFN-γ (Thermo Fisher Scientific) for 48 hours before the ICB assay. […] After 24 hours (37°C, 5% CO2) and 20 min of additional incubation with the luminescence reagent (Bio-Glo™ Luciferase Assay System, Promega) at room temperature, activation of Jurkat ECs was monitored by luminescence measurements on a Spark microplate reader (Tecan). […]

Compound | blocking of both PD-L1/CD80 and PD-1/PD-L1 pathways [1] | blockade of hPD-1/hPD-L1, restored activation of Jurkat-ECs (in words) [2] | EC50 ([2]; luciferase luminescence, 6-hour incubation (routinely), 37°C, 5% CO2, 0.1% DMSO (pAC65), Hill fit, 4–6 independent experiments, read-out: EC50, activation of Jurkat-ECs) | specificity towards hPD-L1 / failure to target mouse PD-L1 (previous studies) [3] | blockade of hPD-1/mPD-L1, restored activation of Jurkat-ECs (in words) [4]
atezolizumab: therapeutic PD-L1-blocking monoclonal antibody (Selleckchem) | Blocking of both PD-L1/CD80 and PD-1/PD-L1 pathways has also been documented | efficiently blocked the hPD-1/hPD-L1 immune checkpoint | 0.14 nM | – | –
Cc1cc(CN[C@H](CO)C(=O)O)c(OCc2cccc(C#N)c2)cc1OCc1cccc(-c2ccc3c(c2)OCCO3)c1C [BMS-1001] | – | – | – | specificity towards the hPD-L1 protein | –
avelumab: therapeutic PD-L1-blocking monoclonal antibody (MedChemExpress) | Blocking of both PD-L1/CD80 and PD-1/PD-L1 pathways has also been documented | restored the activation of Jurkat-ECs blocked with either the hPD-L1-expressing or mPD-L1 expressing cells | – | – | restored the activation of Jurkat-ECs blocked with either the hPD-L1-expressing or mPD-L1 expressing cells
durvalumab: therapeutic PD-L1-blocking monoclonal antibody (Selleckchem) | Blocking of both PD-L1/CD80 and PD-1/PD-L1 pathways has also been documented | efficiently blocked the hPD-1/hPD-L1 immune checkpoint | – | – | atezolizumab but not durvalumab was able to block the hPD-1/mPD-L1 immune checkpoint
Cc1c(COc2cc(OCc3cccc(C#N)c3)c(CN3C[C@H](O)C[C@@H]3C(=O)O)cc2Cl)cccc1-c1ccc2c(c1)OCCO2 [BMS-1166] | – | – | – | specificity towards the hPD-L1 protein | –
